The source made the active and inactive calls. Cut-off read from the data, not from the text of the source, for most assays here: actives have a measured EC50 and inactives only a lower limit.
Columns and labels:
Protein skinhead-1 = target: T1, Protein skinhead-1 (Caenorhabditis elegans, UniProt P34707); type: functional
T1 sequence (P34707 whole entry): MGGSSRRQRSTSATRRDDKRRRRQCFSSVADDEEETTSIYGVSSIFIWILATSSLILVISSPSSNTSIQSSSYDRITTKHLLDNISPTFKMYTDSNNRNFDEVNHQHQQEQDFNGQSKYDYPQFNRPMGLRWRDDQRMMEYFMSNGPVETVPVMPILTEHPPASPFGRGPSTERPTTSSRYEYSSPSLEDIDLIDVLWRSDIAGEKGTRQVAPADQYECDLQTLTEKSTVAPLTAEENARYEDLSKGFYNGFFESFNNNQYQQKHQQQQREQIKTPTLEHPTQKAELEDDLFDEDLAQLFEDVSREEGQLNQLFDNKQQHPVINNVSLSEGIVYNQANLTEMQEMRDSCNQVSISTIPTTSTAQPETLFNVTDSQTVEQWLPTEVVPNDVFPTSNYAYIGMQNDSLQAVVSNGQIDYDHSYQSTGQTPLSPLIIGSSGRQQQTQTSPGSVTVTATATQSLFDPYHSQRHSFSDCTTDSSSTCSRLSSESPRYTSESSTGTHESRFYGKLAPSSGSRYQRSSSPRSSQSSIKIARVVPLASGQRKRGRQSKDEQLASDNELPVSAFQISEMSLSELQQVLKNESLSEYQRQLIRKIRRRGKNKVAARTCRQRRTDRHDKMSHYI

[1] = target: T2, Heat shock factor protein 1 (Mus musculus, UniProt P38532); assay: inhibition of MG132-induced HSE-luciferase signal, confirmation, cell-based, NIH3T3, luminescence, dose retest (AID 2382); type: functional;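 note: NIH3T3 fibroblasts with HSF1-driven luciferase reporter stressed by proteasome inhibitor MG132; luminescence from HSF1-driven luciferase expression after 8 hours of MG132 stress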
T2 sequence (P38532 whole entry): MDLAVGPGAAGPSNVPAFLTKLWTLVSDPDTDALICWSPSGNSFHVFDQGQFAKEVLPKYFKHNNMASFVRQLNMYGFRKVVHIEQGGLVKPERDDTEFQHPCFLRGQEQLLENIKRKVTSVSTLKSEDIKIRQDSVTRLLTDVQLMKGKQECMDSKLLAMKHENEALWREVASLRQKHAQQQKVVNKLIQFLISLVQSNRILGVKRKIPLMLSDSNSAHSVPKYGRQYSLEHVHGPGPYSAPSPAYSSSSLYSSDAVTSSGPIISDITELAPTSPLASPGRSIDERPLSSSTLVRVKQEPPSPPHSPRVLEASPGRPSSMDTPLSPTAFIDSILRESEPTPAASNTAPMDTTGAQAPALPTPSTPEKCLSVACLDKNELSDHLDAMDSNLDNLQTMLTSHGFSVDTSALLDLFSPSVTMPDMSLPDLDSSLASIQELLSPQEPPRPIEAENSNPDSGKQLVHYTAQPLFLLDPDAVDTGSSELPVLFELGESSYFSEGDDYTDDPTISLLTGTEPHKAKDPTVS

cells = type: functional
[2] = target: T3, Corticotropin-releasing factor receptor 2/Corticotropin-releasing factor-binding protein (Homo sapiens, UniProt P24387+Q13324); assay: activators of CRF receptor 2 with binding protein – uHTS hits, confirmation (AID 602473); type: functional; details: read-out: EC50_Mean
T3 sequence (Q13324 whole entry): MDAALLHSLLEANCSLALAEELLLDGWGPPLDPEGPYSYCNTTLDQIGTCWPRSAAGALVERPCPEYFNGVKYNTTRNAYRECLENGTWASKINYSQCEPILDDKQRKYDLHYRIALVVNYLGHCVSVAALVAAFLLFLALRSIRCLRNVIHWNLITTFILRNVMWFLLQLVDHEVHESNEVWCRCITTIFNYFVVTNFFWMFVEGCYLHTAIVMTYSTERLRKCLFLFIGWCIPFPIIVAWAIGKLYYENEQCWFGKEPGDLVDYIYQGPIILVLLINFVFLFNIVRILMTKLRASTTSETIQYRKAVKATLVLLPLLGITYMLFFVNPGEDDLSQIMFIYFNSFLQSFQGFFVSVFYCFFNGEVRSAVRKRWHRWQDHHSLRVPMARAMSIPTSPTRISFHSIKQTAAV
T3 sequence (P24387 whole entry): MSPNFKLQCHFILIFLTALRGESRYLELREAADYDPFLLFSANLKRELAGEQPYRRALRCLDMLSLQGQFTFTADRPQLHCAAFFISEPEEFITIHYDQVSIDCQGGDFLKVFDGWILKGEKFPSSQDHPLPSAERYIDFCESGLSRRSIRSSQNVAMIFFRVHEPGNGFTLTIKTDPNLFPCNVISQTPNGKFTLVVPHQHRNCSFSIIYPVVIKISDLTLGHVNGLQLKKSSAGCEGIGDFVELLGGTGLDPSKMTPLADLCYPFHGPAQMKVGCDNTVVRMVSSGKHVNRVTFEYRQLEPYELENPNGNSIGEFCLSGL

[3] = target: T3, Corticotropin-releasing factor receptor 2/Corticotropin-releasing factor-binding protein; assay: Dose Response confirmation of uHTS hits for small molecule antagonists of the CRF-binding protein and CRF-R2 receptor complex.; type: functional; details: read-out: IC50_Mean
[4] = C. albicans growth with fluconazole, confirmation, fluorescence, retest (AID 2467); type: functional, cell-based
[5] = NIH-3T3 fibroblast cytotoxicity, dose response, cytotoxicity control, cell-based, fluorescence, Alamar Blue, secondary assay (AID 2327); type: functional;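 note: NIH-3T3 mouse fibroblasts cultured with fluconazole at 8 µg/mL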
Genome polyprotein = Genome polyprotein (dengue virus type 2, UniProt P29990); assay: Dengue-2 NS5 methyltransferase inhibitors, primary screen, biochemical, confirmation dose response (AID 588689); type: functional
BJ [6] = assay: cytotoxicity toward BJ-TERT-LT-ST fibroblasts, dose response, cell-based, RAS-independent, luminescence (AID 1935); type: functional; details: Homo sapiens;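 note: BJ fibroblasts immortalized with TERT plus LT and ST oncogenes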
BJ [7] = assay: cytotoxicity toward BJ-TERT fibroblasts, dose response, cell-based, RAS-independent, luminescence (AID 1933); type: functional; details: Homo sapiens
[8] = cytotoxicity toward DRD oncogenic fibroblasts, dose response, cell-based, non-viral oncogenic, luminescence (AID 1934); type: functional; details: Homo sapiens
BJ [9] = assay: cells; type: functional, cell-based; details: Homo sapiens
[10] = target: T2, Heat shock factor protein 1; assay: HSF1 potentiators in luciferase reporter cells, confirmation, cell-based, NIH3T3, luminescence, dose retest (AID 435004); type: functional;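 note: stress induced by proteasome inhibitor MG132 added 30 min after compound; luciferase reporter driven by HSF1 response element in NIH3T3 cells; actives raise luminescence as potentiators of the MG132 stress response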
[11] = target: T4, Rac GTPase-activating protein 1 (Homo sapiens, UniProt Q9H0H5); assay: MgcRacGAP GTPase-activating activity inhibitors, confirmation, biochemical, ADP Hunter fluorescence, primary and confirmatory (AID 624330); type: functional
T4 sequence (Q9H0H5 whole entry): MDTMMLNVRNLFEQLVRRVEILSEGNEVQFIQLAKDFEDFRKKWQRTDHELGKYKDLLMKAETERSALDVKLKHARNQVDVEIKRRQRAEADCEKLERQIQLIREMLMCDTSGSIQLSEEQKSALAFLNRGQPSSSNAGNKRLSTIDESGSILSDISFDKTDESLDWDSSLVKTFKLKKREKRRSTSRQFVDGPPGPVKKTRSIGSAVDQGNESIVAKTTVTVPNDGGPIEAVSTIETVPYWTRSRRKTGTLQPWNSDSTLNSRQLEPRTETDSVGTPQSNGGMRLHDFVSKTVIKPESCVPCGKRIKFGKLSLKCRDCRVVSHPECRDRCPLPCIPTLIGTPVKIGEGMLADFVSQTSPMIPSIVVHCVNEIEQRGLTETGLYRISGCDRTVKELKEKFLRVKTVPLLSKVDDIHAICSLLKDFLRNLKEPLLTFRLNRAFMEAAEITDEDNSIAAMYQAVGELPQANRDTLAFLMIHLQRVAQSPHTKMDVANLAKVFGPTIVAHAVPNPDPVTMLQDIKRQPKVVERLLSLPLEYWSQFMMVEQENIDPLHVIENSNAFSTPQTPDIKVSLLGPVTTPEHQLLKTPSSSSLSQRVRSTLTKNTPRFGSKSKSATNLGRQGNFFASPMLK

INS1 = assay: beta cell apoptosis inhibitors, cytokine rescue, dose response, luminescence, retest (AID 449756); type: functional, cell-based; details: Rattus norvegicus, INS1;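 note: cell death triggered by IL-1 beta plus TNF-alpha plus IFN-gamma mixture; protective hits raise ATP signal compared with cytokine alone wells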

Genome polyprotein, sequence (P29990 2492-3391 limits assumed): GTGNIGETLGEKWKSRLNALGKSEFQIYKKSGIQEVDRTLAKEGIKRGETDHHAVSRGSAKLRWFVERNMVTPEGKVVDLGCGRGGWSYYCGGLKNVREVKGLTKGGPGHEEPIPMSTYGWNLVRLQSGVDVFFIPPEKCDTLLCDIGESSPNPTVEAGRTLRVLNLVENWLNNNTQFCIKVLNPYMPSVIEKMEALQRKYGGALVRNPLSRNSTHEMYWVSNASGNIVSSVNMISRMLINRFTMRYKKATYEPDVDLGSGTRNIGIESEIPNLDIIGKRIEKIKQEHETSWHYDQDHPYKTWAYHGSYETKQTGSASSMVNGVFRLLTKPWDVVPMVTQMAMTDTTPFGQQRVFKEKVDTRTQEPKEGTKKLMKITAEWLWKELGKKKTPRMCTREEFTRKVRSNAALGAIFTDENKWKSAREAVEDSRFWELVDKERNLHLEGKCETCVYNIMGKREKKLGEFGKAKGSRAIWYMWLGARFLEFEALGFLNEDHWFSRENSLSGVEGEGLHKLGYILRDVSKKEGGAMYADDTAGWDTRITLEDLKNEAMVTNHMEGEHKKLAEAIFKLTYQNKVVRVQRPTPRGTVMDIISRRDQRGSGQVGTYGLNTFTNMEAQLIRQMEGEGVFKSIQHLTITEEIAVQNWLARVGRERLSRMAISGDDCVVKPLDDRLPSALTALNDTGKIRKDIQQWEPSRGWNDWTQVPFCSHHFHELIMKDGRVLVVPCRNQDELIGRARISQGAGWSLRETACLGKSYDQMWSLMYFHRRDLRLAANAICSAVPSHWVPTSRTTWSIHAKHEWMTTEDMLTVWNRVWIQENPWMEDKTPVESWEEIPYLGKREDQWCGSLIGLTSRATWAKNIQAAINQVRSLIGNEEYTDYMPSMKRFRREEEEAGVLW

## c1ccc(OCCSc2nc3ccccc3o2)cc1
Protein skinhead-1
  IC50: 32.4 µM (active)
[1]
  EC50: > 195 µM (not active)

## Cc1ccc(OC(=O)c2sc3ncn(C)c(=O)c3c2C)cc1
cells
  IC50: 15.2 µM (active)

## CCCCC(=O)NCc1ccc2c(c1)cc(C)n2C
Protein skinhead-1
  IC50: > 100 µM (inactive)

## CN(C(=O)COC(=O)CCc1nc2ccccc2c(=O)[nH]1)C1CCS(=O)(=O)C1 (centres undefined)
[2]
  EC50: > 53 µM (inactive)
[3]
  IC50: 40.1 µM (active)

## Cc1ccc(C(=O)CC(=O)COc2ccc(Cl)cc2)cc1
[4]
  EC50: 1.62 µM (active)
[5]
  EC50: > 150 µM (inconclusive)

## O=C(Nc1ccccc1)Nc1csc2ccccc12
Protein skinhead-1
  IC50: > 100 µM (inactive)

## O=C(O)c1ccc2c(c1Nc1ccccc1)C(=O)c1ccccc1C2=O
Genome polyprotein
  IC50: > 100 µM (active)

## NC(=NOCC(=O)Nc1ccccc1)c1nonc1N
[2]
  EC50: > 53 µM (inactive)
[3]
  IC50: > 47.1 µM (inactive)

## O=C1/C(=C/c2ccccc2Cl)SC(=S)N1CCC(=O)N1CCCCC1CCO (centres undefined)
BJ [6]
  EC50: > 150 µM (not active)
BJ [7]
  EC50: 19 µM (active)
[8]
  EC50: 45.3 µM (active)
BJ [9]
  EC50: > 150 µM (inconclusive)
[10]
  EC50: > 260 µM (inactive)

## Nc1nn(S(=O)(=O)c2ccccc2)cc1-c1ccc([N+](=O)[O-])cc1
[2]
  EC50: > 53 µM (inactive)
[3]
  IC50: > 47.1 µM (inactive)

## O=C(NN=Cc1cc(Br)c(O)c(Br)c1)c1ccccc1NS(=O)(=O)c1cccs1
Genome polyprotein
  IC50: 27.7 µM (active)

## O=C(Cn1nc(Cl)nc1Cl)Nc1ccccc1
[2]
  EC50: > 53 µM (inactive)
[3]
  IC50: > 47.1 µM (inactive)

## CCn1c(COc2ccc(=O)n(-c3ccccc3)n2)nnc1SCc1cccc(OC)c1
[4]
  EC50: > 38 µM (not active)
[5]
  EC50: > 160 µM (inactive)

## COc1ccc(C(O)(C(=O)NNc2ccc(C)cc2)c2cccs2)cc1 (centres undefined)
[4]
  EC50: > 38 µM (not active)
[5]
  EC50: > 160 µM (inactive)
[10]
  EC50: > 260 µM (inactive)

## CCOC(=O)C(C)On1c(-c2ccc(Cl)cc2)nc2ccc([N+](=O)[O-])cc21 (centres undefined)
Protein skinhead-1
  IC50: > 100 µM (inactive)

## COc1cccc(C(=O)C2CCCN(Cc3cccc4c3OCO4)C2)c1 (centres undefined)
[4]
  EC50: > 38 µM (not active)
[5]
  EC50: > 160 µM (inactive)

## CS(=O)(=O)N1CCN(C(=O)COc2ccc3ccccc3c2)CC1
[2]
  EC50: > 53 µM (inactive)
[3]
  IC50: > 47.1 µM (inactive)

## CC(C)OP(=O)(c1ccc(N(C)C)cc1)C(O)c1ccccc1 (centres undefined)
[4]
  EC50: 3.06 µM (active)
[5]
  EC50: > 160 µM (inconclusive)

## Cc1ccc(C(C2=C(O)CC(C)(C)CC2=O)C2C(=O)CC(C)(C)CC2=O)o1 (centres undefined)
Genome polyprotein
  IC50: 60 µM (active)
[11]
  IC50: 56.4 µM (active)

## Cc1ccc2nc(C)c3c(c2c1)SCC3
cells
  IC50: 24.6 µM (active)

## Cc1c(C(=O)NNC(=O)c2csc(N3CCOCC3)n2)oc2ccccc12
cells
  IC50: 13.2 µM (active)

## COC(=O)COc1cccc(NC(=O)c2cccc(C)c2)c1
cells
  IC50: 17.6 µM (active)

## O=S(=O)(c1ccc(F)cc1)n1ccc(-c2cccc(OCc3c(F)cccc3Cl)c2)n1
Protein skinhead-1
  IC50: > 100 µM (inactive)

## N=c1oc2ccccc2cc1C(=O)NC1CCCCCC1
cells
  IC50: > 50 µM (active)

## O=C1/C(=C/c2cccs2)SC(=S)N1CC(=O)N1CCCCC1CCO (centres undefined)
Protein skinhead-1
  IC50: > 100 µM (inactive)

## CCc1c(C)nc(SCC(=O)N2CCN(c3ccccc3OC)CC2)nc1O
[2]
  EC50: > 53 µM (inactive)
[3]
  IC50: > 47.1 µM (inactive)

## COc1cc(NC(=O)[C@H](C)NC(=O)N2CCn3c2nc2ccccc23)cc(OC)c1
[2]
  EC50: > 53 µM (inactive)
[3]
  IC50: > 47.1 µM (inactive)

## Cc1cccc(NC(=O)Cc2ccc(NC3=NC4CS(=O)(=O)CC4S3)cc2)c1 (centres undefined)
[2]
  EC50: > 53 µM (inactive)
[3]
  IC50: > 47.1 µM (inactive)

## CCN(C(=O)CCc1nnc2ccc(N3CCC4(CC3)OCCO4)nn12)c1ccccc1
[2]
  EC50: > 53 µM (inactive)
[3]
  IC50: > 47.1 µM (inactive)

## COc1ccc(-c2cc(C(=O)NC3CCCC3)c3ccccc3n2)cc1OC
[2]
  EC50: > 53 µM (inactive)
[3]
  IC50: > 47.1 µM (inactive)

## CCN(CC)c1ccc(/N=C/c2ccc([N+](=O)[O-])o2)cc1
[4]
  EC50: > 38 µM (not active)
INS1
  AC50: 43.9 µM (active)
[5]
  EC50: > 150 µM (inactive)

## CCC(=O)c1ccc(OCC(=O)NCCCN2CCOCC2)cc1
[2]
  EC50: > 53 µM (inactive)
[3]
  IC50: > 47.1 µM (inactive)

## C/C(=N/Nc1ccc(C)cc1)C1(C)N(O)C(C)(C)C(c2ccco2)=[N+]1[O-] (centres undefined)
[4]
  EC50: > 38 µM (not active)
[5]
  EC50: 66.1 µM (inconclusive)

Reference: ChEMBL document CHEMBL1201862, “PubChem BioAssay data set” (2004)
